Data on five compounds can be found in patent US7531320B2, “Modulation of β-catenin/TCF-activated transcription” (priority 2003, dated 2009).

One data set has as its target T1, CBP (Homo sapiens, UniProt Q92793).
T1 construct: endogenous in cells; host or cells: SW480 nuclear extract
The data set can be described thus: COMPOUND 2 streptavidin-agarose affinity pull-down from SW480 nuclear extracts. The note with it: SW480 nuclear extract, immunoblotting with anti-CBP. Type of data set: binding. As to the method:
FIG. 1. COMPOUND 1 inhibits β-catenin/TCF transcription. • A(i) and A(ii). Structures of COMPOUND 1, COMPOUND 2, COMPOUND 3, COMPOUND 4, and COMPOUND 5. • B(i) and B(ii). […] SW480 cells (10^5), (FIG. 1B(i)), were transfected with β-catenin/TCF luciferase construct. Cells were treated with COMPOUND 1 (1-64 μM). 24 hours post treatment lysates were prepared and subjected to dual luciferase assay. The data is represented in different form in FIG. 1B(ii). • C. COMPOUND 1 has no effect on NFAT reporter construct. Stably transfected Jurkat cells, right panel, with an NFAT reporter construct, were stimulated with PMA (10 ng/ml)/lonomycin (1 μg/ml), and treated with COMPOUND 1 (0.781-50 μM). 24 hours post treatment lysates were prepared and subjected to dual luciferase assay. All experiments were performed in duplicate and the values plotted as means +/−standard deviation. • D. CBP is the molecular target of COMPOUND 1. Nuclear extracts of SW480 cells were incubated with streptavidin-agarose beads coated with COMPOUND 2 (25 μM). Beads were washed 3 times and the eluted were subjected to gel electrophoresis and immunoblotting, with anti-CBP antibodies. […] The lysates were desalted using G-25 1 cc columns (Pharmacia) to remove the unbound ^14C-labeled-COMPOUND 1, and ^14C-labeled-COMPOUND 1 incorporation was measured. […]

Another data set concerns the target T2, p300 (1-111) (Homo sapiens, UniProt Q09472).
T2 construct: 6xHis (C); HSV tag (C); expressed in transfected cells
The data set can be described thus: Pull-down of p300 deletion constructs on COMPOUND 2 coated beads, competition with excess COMPOUND 1. Type of data set: binding. The settings on record: E. coli expressed 6x-His protein, 100 μM COMPOUND 2. As to the method: FIG. 2. The first 111 amino acids of CBP, but not p300, specifically bind COMPOUND 1. • A. Schematic representation of the wild-type and deletion constructs for CBP. • B. CBP (1-111) contains the minimal binding domain of COMPOUND 1. Expression levels of CBP deletion constructs in SW480 cells are shown (upper panel). 10 μg of total protein was subjected to gel electrophoresis and subjected to immunoblotting using anti-His antibodies. Whole cell lysates of SW480 cells expressing CBP deletion constructs were bound to streptavidin-agarose beads coated with 100 μM of COMPOUND 2. The bound fractions were subjected to gel electrophoresis and immunoblotting using anti-His antibodies (lower panel). Arrows point to constructs which remained bound to COMPOUND 2 coated beads. • C. […] CBP deletion constructs, CBP(1-111),CBP (1-211), and CBP (1-351) and p300 deletion constructs, p300 (1-111), p300 (1-211), and p300 (1-351) were transfected into SW480 cells. Whole cell lysates were incubated with streptavidin-agarose beads or streptavidin-agarose beads coated with 100 μM COMPOUND 2 (lower panel). The binding of CBP constructs (1-111,1-211, and 1-351) and p300 constructs (1-111,1-211, and 1-351) to the beads was challenged with excess COMPOUND 1 (150 μM). • D. CBP (1-111) binds to COMPOUND 1 in a phosphorylation independent manner. […]

Another data set has as its target T3, CBP (1-111) (Mus musculus, UniProt P45481).
T3 construct: 6xHis (C); HSV tag (C); expressed in transfected cells
The data set can be described thus: Pull-down of CBP deletion constructs on COMPOUND 2 coated beads, competition with excess COMPOUND 1. The settings on record: E. coli expressed 6x-His protein, 100 μM COMPOUND 2. Type of data set: binding.

The next data set relates to RPM17951. The settings on record: human. As to the method:
(§1) Cytotoxicity of COMPOUND 3 (an analog of COMPOUND 1, FIG. 1A) and other anticancer therapeutics were measured using cancer cells with various origins.

The subject of the next data set is PC3. The settings on record: human. As for the experimental part: as §1
The test system of another data set is 293. The settings on record: human. As to the method:
as §1

For another data set, the system named is HL60. The note with it: human. As for the experimental part: as §1
For a further data set, the system named is MCF7. The settings on record: human. As for the experimental part:
as §1

A further data set relates to A549. The settings on record: human. As to the method: as §1
In the next data set the test system is SW480 cells. In words: Soft agar colony formation assay with SW480 cells. The note with it: Homo sapiens, 192 h, 5000 cells/well, colonies counted after 8 days. Type of data set: cell-based, human.
Another data set concerns Min mouse. In words: Polyp number in Min mouse model. The settings on record: for Polyp Number (Mean + S.D.), Colon / Polyp Number (Mean + S.D.), Small intestine / Polyp Number (Mean + S.D.), Total / % Inhibition vs. VH: Min mouse; for % Inhibition vs. VH: total polyp number vs. vehicle. Type of data set: in vivo. As to the method:
COMPOUND 4, COMPOUND 5, or vehicle was administrated in wild type and Min mice. COMPOUND 4 is also an analog of COMPOUND 1 (FIG. 1A). The numbers of polyp formed in small intestine and colon of these mice after various treatments were measured (Table 6).

Bounds are passed on as bounds.

T1 sequence (Q92793 whole entry): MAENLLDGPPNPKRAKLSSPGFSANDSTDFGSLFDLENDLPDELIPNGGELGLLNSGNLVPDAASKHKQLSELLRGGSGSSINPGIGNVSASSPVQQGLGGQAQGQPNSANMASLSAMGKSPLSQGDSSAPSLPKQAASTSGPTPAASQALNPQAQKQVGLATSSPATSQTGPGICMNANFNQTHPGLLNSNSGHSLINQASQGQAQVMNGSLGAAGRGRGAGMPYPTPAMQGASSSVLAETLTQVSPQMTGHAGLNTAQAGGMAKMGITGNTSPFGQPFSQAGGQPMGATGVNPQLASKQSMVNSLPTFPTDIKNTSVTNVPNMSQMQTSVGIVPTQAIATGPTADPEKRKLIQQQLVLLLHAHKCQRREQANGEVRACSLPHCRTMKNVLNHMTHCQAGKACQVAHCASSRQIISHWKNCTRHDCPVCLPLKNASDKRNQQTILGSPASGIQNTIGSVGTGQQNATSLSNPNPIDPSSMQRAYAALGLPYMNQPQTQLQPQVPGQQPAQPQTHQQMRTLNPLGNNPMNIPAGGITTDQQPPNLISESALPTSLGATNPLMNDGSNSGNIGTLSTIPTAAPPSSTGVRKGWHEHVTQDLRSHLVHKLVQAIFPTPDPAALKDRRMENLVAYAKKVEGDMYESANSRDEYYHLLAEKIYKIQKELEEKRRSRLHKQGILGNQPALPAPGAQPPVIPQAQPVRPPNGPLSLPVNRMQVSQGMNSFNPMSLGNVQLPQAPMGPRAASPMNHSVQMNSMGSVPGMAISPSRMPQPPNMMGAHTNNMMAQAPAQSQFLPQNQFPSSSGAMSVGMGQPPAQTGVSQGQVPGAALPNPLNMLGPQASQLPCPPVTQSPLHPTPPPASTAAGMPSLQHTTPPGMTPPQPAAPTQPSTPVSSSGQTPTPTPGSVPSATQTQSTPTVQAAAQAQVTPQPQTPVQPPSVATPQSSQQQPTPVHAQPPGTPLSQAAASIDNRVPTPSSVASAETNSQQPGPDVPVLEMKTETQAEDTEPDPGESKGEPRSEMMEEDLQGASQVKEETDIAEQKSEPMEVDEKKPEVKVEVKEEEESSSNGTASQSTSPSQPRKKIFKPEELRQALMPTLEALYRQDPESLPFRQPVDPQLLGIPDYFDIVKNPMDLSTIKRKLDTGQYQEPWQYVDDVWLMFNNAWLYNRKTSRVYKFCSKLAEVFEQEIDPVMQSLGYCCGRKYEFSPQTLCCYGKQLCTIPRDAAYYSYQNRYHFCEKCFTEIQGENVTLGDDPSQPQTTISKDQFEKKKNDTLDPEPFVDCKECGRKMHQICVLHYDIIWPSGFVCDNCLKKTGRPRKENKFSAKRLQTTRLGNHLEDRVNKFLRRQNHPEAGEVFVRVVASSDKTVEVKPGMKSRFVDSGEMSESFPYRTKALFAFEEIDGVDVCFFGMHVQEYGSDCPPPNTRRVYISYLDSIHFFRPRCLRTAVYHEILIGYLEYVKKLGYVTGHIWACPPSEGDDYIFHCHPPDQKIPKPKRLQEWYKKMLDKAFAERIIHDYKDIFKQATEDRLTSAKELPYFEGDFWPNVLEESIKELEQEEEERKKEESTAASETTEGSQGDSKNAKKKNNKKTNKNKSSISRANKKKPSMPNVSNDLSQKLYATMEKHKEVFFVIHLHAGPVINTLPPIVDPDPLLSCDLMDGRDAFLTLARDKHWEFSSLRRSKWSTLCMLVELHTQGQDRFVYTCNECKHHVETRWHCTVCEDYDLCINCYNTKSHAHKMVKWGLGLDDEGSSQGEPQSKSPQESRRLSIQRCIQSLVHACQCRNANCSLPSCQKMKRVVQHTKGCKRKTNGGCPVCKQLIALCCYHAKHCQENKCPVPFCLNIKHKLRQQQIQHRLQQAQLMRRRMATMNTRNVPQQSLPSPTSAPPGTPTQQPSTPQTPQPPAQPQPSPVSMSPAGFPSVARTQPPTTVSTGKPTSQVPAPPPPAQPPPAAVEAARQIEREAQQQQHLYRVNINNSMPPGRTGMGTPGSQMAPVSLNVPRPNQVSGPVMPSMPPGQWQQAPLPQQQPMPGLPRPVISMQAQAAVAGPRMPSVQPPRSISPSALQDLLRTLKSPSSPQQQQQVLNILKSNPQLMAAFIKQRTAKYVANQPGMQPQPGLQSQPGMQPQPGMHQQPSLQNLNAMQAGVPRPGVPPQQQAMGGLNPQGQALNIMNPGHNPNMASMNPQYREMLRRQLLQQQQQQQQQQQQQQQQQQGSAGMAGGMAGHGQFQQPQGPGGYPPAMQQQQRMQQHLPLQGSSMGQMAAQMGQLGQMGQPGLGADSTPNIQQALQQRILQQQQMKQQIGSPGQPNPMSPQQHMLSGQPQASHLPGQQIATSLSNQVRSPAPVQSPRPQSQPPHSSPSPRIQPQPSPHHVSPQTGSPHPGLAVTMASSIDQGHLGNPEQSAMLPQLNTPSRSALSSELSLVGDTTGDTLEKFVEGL
T2 sequence (Q09472 1-117): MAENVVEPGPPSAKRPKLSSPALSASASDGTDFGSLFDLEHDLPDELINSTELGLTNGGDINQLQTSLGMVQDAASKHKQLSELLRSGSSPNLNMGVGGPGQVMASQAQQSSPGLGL
T3 sequence (P45481 1-110): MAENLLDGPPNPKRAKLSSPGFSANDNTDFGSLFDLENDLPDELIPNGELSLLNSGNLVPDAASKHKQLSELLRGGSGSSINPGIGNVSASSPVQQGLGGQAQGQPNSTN

As for `O=C(CCCCCNC(=O)CCCCC1SCC2NC(=O)NC21)NCCCCCC(=O)NCc1cccc(CNC(=O)N2CCC(=O)N3C(Cc4ccc(O)cc4)C(=O)N(Cc4cccc5ccccc45)CC23)c1` (stereo not shown) [COMPOUND 2], at CBP, the “Major band retained on COMPOUND 2 affinity column” value is given as “identified by immunoblotting as the CREB Binding Protein (CBP)”. In addition, the “Binding of purified p300 (1-111) to COMPOUND 2 beads” value at p300 (1-111) is “not p300 (1-111)”. Also, at CBP (1-111), the “Binding of purified CBP (1-111) to COMPOUND 2 beads” value is given as “specific binding”.

As for `COc1cccc2c1C(=O)c1c(O)c3c(c(O)c1C2=O)C[C@@](O)(C(=O)CO)C[C@@H]3O[C@H]1C[C@H](N)[C@H](O)[C@H](C)O1` [ADR, adriamycin], the Cytotoxicity with RPM17951 is 0.171 µg/mL; in the data set on PC3 it was 0.267 µg/mL; in the data set on 293 it was <0.03 µg/mL; in the data set with HL60, 0.086 µg/mL; with MCF7, 1.424 µg/mL; in the data set on A549, 0.117 µg/mL.

What is called IC50 is the concentration needed to halve the response being measured. On to `O=c1[nH]cc(F)c(=O)[nH]1` [5-FU, 5-fluorouracil], for which the Cytotoxicity was 0.920 µg/mL in the data set with RPM17951; >10 µg/mL in the data set with PC3; 2.015 µg/mL with 293; 7.010 µg/mL in the data set with HL60; 1.751 µg/mL in the data set with MCF7; 1.007 µg/mL in the data set with A549. In the data set with SW480 cells, this compound showed a half-inhibitory concentration (IC50) of 1.98 ± 0.17 µM.

Regarding `CC1=C(CC(=O)O)c2cc(F)ccc2/C1=C\c1ccc([S+](C)[O-])cc1` (stereo not shown) [Sulindac, reference compound], in the data set with Min mouse (160 ppm), the “Polyp Number (Mean + S.D.), Colon” value was found to be 0.5 ± 0.5; the “Polyp Number (Mean + S.D.), Small intestine” value stood at 48.0 ± 20.7; the “Polyp Number (Mean + S.D.), Total” value is given as 48.5 ± 20.9; the “% Inhibition vs. VH” value stood at 28%.

For the compound `CN1CC(=O)N2C(Cc3ccc(O)cc3)C(=O)N(Cc3cccc4cccnc34)CC2N1C(=O)NCc1ccccc1` (stereo not shown) [COMPOUND 4], in the data set on Min mouse (Min mice, about 300 mpk), the “Effect on number of polyp compared to vehicle control” value is listed as “reduce the number of polyp”. Besides, in the data set with Min mouse (300 mpk), the “Polyp Number (Mean + S.D.), Colon” value is reported as 1.4 ± 0.9; the “Polyp Number (Mean + S.D.), Small intestine” value stood at 45.2 ± 22.1; the “Polyp Number (Mean + S.D.), Total” value came to 46.8 ± 17.0; the “% Inhibition vs. VH” value worked out at 31%.
